Consider four molecules from US7754852B2, “Natriuretic polypeptides” (Mayo Foundation for Medical Education and Research, priority 2007, dated 2010).

Where a SMILES comes first, the peptide text is derived from it. Bridges are numbered along the chain shown (N, C = ends). Where no end group is shown, it is not given here.

Series [1] concerns normal anesthetized dogs. Put plainly: Cardiorenal function in normal anesthetized dogs, consecutive i.v. infusions of 10, 50 and 100 ng/kg/minute. It counts as in vivo, dog. The method, then: Cardiorenal function was assessed in three normal anesthetized dogs. […] Tubular Na^+ reabsorption and GFR were assessed by clearance of Li^+ and inulin, respectively. Neurohormones were quantified by radioimmunoassays. Data were analyzed by repeated measures ANOVA followed by Dunnett's test.

Series [2] deals with normal anesthetized dogs. Briefly: Hemoconcentrating effects (hematocrit) of i.v. infusion at 14 pmol/kg/minute in normal anesthetized dogs. The class given is in vivo, dog. The method, then: Three human NPs (BNP, CNP, URO, and CU-NP were studied to evaluate their effects on vascular permeability as manifested by an increase in hematocrit. Normal anesthetized dogs received i.v. infusions of BNP (n=7), CNP (n=6), URO (n=5), or CU-NP (n=6) at 14 pmol/kg/minute. Blood was collected in EDTA tubes on ice and centrifuged. Data are reported for base-line and at 60 minutes of infusion. In addition to increasing hematocrit (Table 5), CU-NP reduced PCW pressure in vivo (baseline 6±0.9 mmHg, 60 minutes 3±0.9 mmHg; P<0.05). Thus, hemoconcentrating effects of CU-NP may contribute to its cardiac-unloading actions in vivo.

For series [3], the system named is isolated canine glomeruli. Put plainly: cGMP stimulation in isolated canine glomeruli. The note with it: 10^−5 M. It counts as cell-based. The method, then: Experiments were conducted to determine whether CU-NP directly stimulates cGMP in isolated glomeruli, and to compare the cGMP-activating actions of CU-NP with CNP, URO, and CNP-C, which consisted of the full-length 22-AA of CNP with a duplicate of the N-terminus fused in the C-terminal position. Glomeruli were isolated upon harvest of normal canine kidneys. CU-NP, CNP, URO, and CNP-C (10^−5 M) were incubated with glomeruli vs. control. Cyclic GMP was measured by RIA, with correction for protein levels. CU-NP and URO elicited greater cGMP responses than respective controls (P<0.01), but without difference between groups. CU-NP and URO stimulated greater cGMP responses vs. CNP and vs. CNP-C (P<0.001).

Series [4] relates to human aortic endothelial cells (HAEC). Briefly: cGMP response in HAEC in the absence or presence of NPR-B antibody. The note with it: 10^−6 M, 10 minutes. The class given is cell-based. As for the experimental part: (§1) cGMP responses to the 3 peptides also were assessed in glomeruli isolated from canine kidneys upon harvest, in the presence or absence of an NPR-A antagonist, […] (1 μM), or an NPR-B antagonist, […] (1 μM), or both antagonists added sequentially (A71915 followed by […], 1 μM final concentration for both). To confirm the involvement of NPR-B in the cGMP response to CU-NP, additional experiments were conducted using human aortic endothelial cells (HAEC). Cyclic GMP response was determined by incubating CU-NP (10^-6 M) for 10 minutes in the absence or presence of an antibody to the ligand-binding domain of NPR-B. In vitro data (mean±SEM) were analyzed by one-way ANOVA followed by Bonferroni's post-test. Statistical significance was defined as P<0.05. GraphPad Prism 4 (GraphPad Software, San Diego, Calif.) was used for statistical analyses.

Series [5] concerns normal anesthetized dogs. Put plainly: Renal, cardiovascular and neurohumoral effects of i.v. infusion at 50 ng/kg/minute for 75 minutes in normal anesthetized dogs. The class given is in vivo, dog. As for the experimental part:
CU-NP or CNP polypeptide was intravenously infused into normal anesthetized dogs at 50 ng/kg/minute for 75 minutes. Blood and urine samples were collected pre-infusion (pre-I), at 30 and 60 minutes of infusion, and post-infusion (post-I). Inulin clearance was used for assessment of glomerular filtration rate (GFR). The lithium clearance technique was used for measurement of proximal and distal fractional reabsorption of Na^+ (PFRNa and DFRNa, respectively). Comparisons at the latter three time points versus pre-I were made. Student's t-test was used when comparing results for two time points, whereas repeated measures ANOVA was used to compare four time points.

Series [6] concerns normal anesthetized dogs. Put plainly: In vivo renal perfusion pressure, i.v. infusion at 14.14 pmol/kg/minute for 75 minutes. The arrangement: species or system dog. Particulars: RPP estimated by MAP−RAP. As for the experimental part: Studies were conducted to determine the in vivo actions of CNP, CU-NP and URO on renal perfusion pressure (RPP, as estimated by MAP-RAP), as RPP is a key determinant of renal function. Given the GFR-enhancing action of CU-NP, in vitro studies also were done to test the hypothesis that CU-NP (unlike CNP) also activates NPR-A, a potent renal acting NP receptor. Equimolar doses of CU-NP, human CNP, or human URO were intravenously infused at 14.14 pmol/kg/minute into 17 normal anesthetized dogs for 75 minutes. RPP was assessed at baseline and at 60 minutes of infusion. Data are expressed as mean±SEM. Clearances were measured from the 16th to the 45th minute and from the 46th to the 75th minute following initiation of peptide infusion. Within each group, 2-tailed paired t-test was used to compare RPP at 60 minutes of peptide infusion vs. baseline. Comparisons between groups were made by two-way ANOVA followed by Bonferroni post-test.

In series [7] the test system is isolated canine glomeruli. Put plainly: cGMP response in isolated canine glomeruli with or without NPR-A antagonist and NPR-B antagonist. The note with it: 10^−5 M, no antagonist. The class given is cell-based. As for the experimental part: as §1
Setting [8] is: 60 min of i.v. infusion at 14 pmol/kg/minute.
The mark [9] stands for this setting: 30 minutes of infusion, 50 ng/kg/minute i.v.
Setting [10] is: 60 minutes of infusion, 50 ng/kg/minute i.v.
The mark [11] stands for this setting: 60 minutes of i.v. infusion at 14.14 pmol/kg/minute.

`CC[C@H](C)[C@@H]1NC(=O)[C@H](CCCNC(=N)N)NC(=O)[C@H](CC(=O)O)NC(=O)[C@H](CC(C)C)NC(=O)[C@H](CCCCN)NC(=O)[C@H](CC(C)C)NC(=O)CNC(=O)[C@H](Cc2ccccc2)NC(=O)[C@@H](NC(=O)[C@H](CO)NC(=O)[C@H](CO)NC(=O)[C@H](CCCNC(=N)N)NC(=O)[C@H](CCCNC(=N)N)NC(=O)[C@H](CC(C)C)NC(=O)[C@H](CO)NC(=O)[C@H](CCCNC(=N)N)NC(=O)[C@@H]2CCCN2C(=O)[C@H](C)NC(=O)[C@@H](N)[C@@H](C)O)CSSC[C@@H](C(=O)N[C@@H](CC(N)=O)C(=O)N[C@@H](CO)C(=O)N[C@@H](Cc2ccccc2)C(=O)N[C@@H](CCCNC(=N)N)C(=O)N[C@@H](Cc2ccc(O)cc2)C(=O)O)NC(=O)CNC(=O)[C@H](CC(C)C)NC(=O)CNC(=O)[C@H](CO)NC(=O)[C@H](CCSC)NC(=O)[C@H](CO)NC(=O)CNC1=O` [CU-NP] (H-TAPRSLRRSSCFGLKLDRIGSMSGLGCNSFRY-OH; disulfide 11-27): the QTc interval with normal anesthetized dogs [1] (end of infusion at 100 ng/kg/minute) was found to be 329 ± 15 ms; in the series with normal anesthetized dogs [1] (pre-infusion), 323 ± 6 ms.

On to BNP: human NP (natriuretic peptide) BNP, for which the “Hematocrit (mean ± SEM)” value with normal anesthetized dogs [2] (setting [8]) was determined as 40 ± 2 %; with normal anesthetized dogs [2] (Baseline), 36 ± 1%.

For “CNP: human CNP, mature natriuretic polypeptide of 22 amino acids”, the “cGMP (mean ± SEM)” value in series [3] worked out at 0.0019 ± 0.0005 fmol/µg. For the same molecule, the cGMP in series [4] (in the presence of the NPR-B antibody (1:100)) is 0.08 ± 0.01 pmol/mL. In series [4] (no antibody), the cGMP was 0.17 ± 0.04 pmol/mL. In the series on normal anesthetized dogs [5] (setting [9]), the “DFRNa+” value is given as 98 ± 0.8%, the GFR was determined as 42 ± 4 mL/min, the “Na^+ excretion” value is listed as 56 ± 21 μEq/min and the “PFRNa+” value is reported as 67 ± 3%. Moreover, in the series on normal anesthetized dogs [5] (setting [9]), the “Plasma cGMP” value turned out to be 11 ± 1 pmol/mL, the “Renal generation of cGMP” value is 452 ± 202 pmol/min, the “Urinary cGMP excretion” value is 1119 ± 102 pmol/min and the Urine flow is 0.3 ± 0.06 mL/min. Further, in the series with normal anesthetized dogs [5] (setting [10]), the “DFRNa+” value is 98 ± 0.5%, the GFR turned out to be 39 ± 3 mL/min, the “Na^+ excretion” value is given as 71 ± 8 μEq/min and the “PFRNa+” value is on record as 51 ± 7 %. Further, in the series with normal anesthetized dogs [5] (setting [10]), the “Plasma cGMP” value came to 12 ± 1 pmol/mL, the “Renal generation of cGMP” value is recorded as 603 ± 199 pmol/min, the “Urinary cGMP excretion” value was 1338 ± 81 pmol/min and the Urine flow was determined as 0.4 ± 0.02 mL/min. Also, in the series on normal anesthetized dogs [5] (post-infusion), the “DFRNa+” value is 99 ± 0.2%, the GFR was determined as 44 ± 3 mL/min, the “Na^+ excretion” value was 30 ± 8 μEq/min and the “PFRNa+” value is listed as 68 ± 3 %. Moreover, in the series on normal anesthetized dogs [5] (post-infusion), the “Plasma cGMP” value is listed as 12 ± 1 pmol/mL, the “Renal generation of cGMP” value worked out at 582 ± 91 pmol/min, the “Urinary cGMP excretion” value worked out at 1090 ± 76 pmol/min and the Urine flow came out at 0.3 ± 0.04 mL/min. Also, in the series with normal anesthetized dogs [5] (pre-infusion), the “DFRNa+” value worked out at 99 ± 0.5%, the GFR was 38 ± 4 mL/min, the “Na^+ excretion” value is recorded as 16 ± 6 μEq/min and the “PFRNa+” value came to 83 ± 3%. In addition, in the series on normal anesthetized dogs [5] (pre-infusion), the “Plasma cGMP” value is reported as 8 ± 1 pmol/mL, the “Renal generation of cGMP” value came to 491 ± 65 pmol/min, the “Urinary cGMP excretion” value turned out to be 830 ± 74 pmol/min and the Urine flow was 0.1 ± 0.02 mL/min. Also, the “Hematocrit (mean ± SEM)” value in the series with normal anesthetized dogs [2] (setting [8]) stood at 37 ± 1%. The “Hematocrit (mean ± SEM)” value with normal anesthetized dogs [2] (Baseline) is 36 ± 1%. In addition, the “RPP (mean ± SEM)” value in the series with normal anesthetized dogs [6] (setting [11]) is 123 ± 8 mmHg. In the series with normal anesthetized dogs [6] (Pre-I), the “RPP (mean ± SEM)” value was 120 ± 4 mmHg.

For “URO: human urodilatin, natriuretic polypeptide (TAPRSLRRSSCFGGRMDRIGAQSGLGCNSFRY; ends and bridges not checked; cysteine pairing not given here; UniProt P01160 120-151, looked up)”, the cGMP in series [7] stood at 0.54 ± 0.10 fmol/µg. In addition, in series [3], the “cGMP (mean ± SEM)” value is 0.69 ± 0.07 fmol/µg. For the same molecule, the “Hematocrit (mean ± SEM)” value came out at 40 ± 1 % with normal anesthetized dogs [2] (setting [8]) and 37 ± 1% with normal anesthetized dogs [2] (Baseline). In addition, the “RPP (mean ± SEM)” value is given as 119 ± 4 mmHg in the series on normal anesthetized dogs [6] (setting [11]) and 127 ± 4 mmHg in the series on normal anesthetized dogs [6] (Pre-I).
